The source of these data is publication PMC6986439, “Sultiame pharmacokinetic profile in plasma and erythrocytes after single oral doses: A pilot study in healthy volunteers” (Pharmacology Research & Perspectives, 2020).

One series deals with erythrocytes. Nature of the series: In vitro competition studies with zonisamide and topiramate in whole blood. Type of series: in vitro ADME, human. Conditions: not influenced by the addition of sultiame; data not shown. How it is done: In addition, competition studies were performed with two other antiepileptic agents known for their affinity for CA (zonisamide and topiramate), added at equimolar concentration to 20 mg/L of sultiame. Similar ranges of inhibition constants for CA II were reported in the literature for these three substances.13 Samples (1 mL) were drawn before and at 2, 4, 6, 8, 10, 15, 20, 30, 45, 60, and 120 min after addition of the competitor. Sultiame, zonisamide, and topiramate concentrations were then analyzed. All samples were centrifuged at 18 620 g for 1 minutes at 4°C. Plasma, erythrocyte, and urine fractions were stored separately at − 80°C prior to analysis for a maximum of 9 months. For analysis, plasma and hemolyzed erythrocytes samples were subjected to protein precipitation with MeOH containing the internal‐standard sultiame D4 and quantified with the previously described HPLC‐MS/MS method, using matrix‐matched calibration and quality controls. The sultiame concentrations determined in erythrocytes were corrected for the 10% interstitial plasma remnant in the erythrocyte fraction after centrifugation.14

Details of series [1]: method as in earlier work. Conditions: main metabolite identified in urines ref 8; cited from earlier work.

Take `CC1(C)O[C@@H]2[C@@H](CO[C@@]3(COS(N)(=O)=O)OC(C)(C)O[C@@H]23)O1` [topiramate]: the erythrocyte/plasma ratio in the series with erythrocytes was roughly 1. hydroxy‐sultiame: the activity of metabolite entry in series [1] was “inactive”.
